The conditions of data set [1]: in vivo.
Experimental: Three doses of 640 mg custirsen are administered IV during the Loading Dose Period (Days −9 to −1). There is at least one “non-infusion” day between each administration of custirsen (i.e. every other day) during the Loading Dose Period and between the third loading dose of custirsen and Day 1 of Cycle 1. The day prior to Day 1 of Cycle 1 (Day 0) is a “no treatment” day. There are no more than 4 days between the last loading dose and Day 1 of Cycle 1. A common schedule is to give the three loading doses of custirsen on Monday, Wednesday and Friday with Day 1, Cycle 1 starting on the following Monday. Up to nine days are allowed for completing the three loading doses prior to Day 0 to account for clinic visits, weekends, and holidays. Subjects receive each dose of custirsen as a 2 hour infusion.
A further data set deals with stage IIIB or IV NSCLC. Put plainly: Phase 1-2 study of weekly custirsen plus a gemcitabine/platinum-based regimen: survival by baseline serum clusterin. It is filed as in vivo, human. The method, then: The relationship between serum clusterin levels and the duration of individual survival was evaluated during a phase 1-2 study of weekly custirsen plus a gemcitabine/platinum-based regimen in patients with stage IIIB or IV NSCLC. Not all of the patients in this study had baseline levels of clusterin measured. However, starting with N=69 subjects with measured baseline clusterin levels, fitting the Cox proportional hazards (PH) model with baseline clusterin as sole predictor gives p=0.10; the coefficient is positive, so that higher clusterin is associated with increased survival risk. Among the N=55 subjects who also had post-baseline data collected, fitting the same PH model gives p=0.05, again with positive coefficient.
A careful search for possible cutpoints, using all N=69 subjects with baseline clusterin levels, produced 71 μg/mL as a strong candidate.
Among all N=69 subjects with a baseline clusterin level, there were […] with clusterin ≦71 μg/mL (median survival time was 18.8 months), and N=26 subjects with baseline clusterin >71 μg/mL (median survival time was 10.2 months); the log-rank p-value=0.004. Removing the N=14 early discontinuers leaves N=35 subjects with baseline clusterin ≦71 μg/mL (median survival time was 28.7 months), and N=20 subjects with baseline clusterin >71 μg/mL (median survival time was 12.2 months); the log-rank p-value=0.0002.

Data set [2] has as its system cancerous human prostate, breast, ovarian, lung, renal, bladder, and melanoma cells. As to conditions: broad range of studies (Miyake et al. 2005); cited from earlier work.
In a further data set the test system is clusterin. The conditions noted are these: broad range of studies (Miyake et al. 2005); cited from earlier work.
For data set [3] the following is noted: cited from earlier work.
Another data set has as its system NSCLC. As to conditions: 2nd line setting, from reports; cited from earlier work.
The target of another data set is CYP3A4 (Homo sapiens, UniProt P08684). As to conditions: cited from earlier work.

Like-named read-outs stand apart in the source and are kept apart here. Strand notation (5' to 3'): a small letter for the sugar, then the base; units joined by * are phosphorothioate-linked, units joined directly phosphodiester-linked; [ ] holds rarer units or linkages, { } end groups; capitals alone tell only the bases. e = 2'-O-(2-methoxyethyl) (MOE); [5mC] = 5-methylcytosine; d = 2'-deoxy (DNA)

Consider 2 compounds from patent US20130017272A1, “METHOD FOR TREATING NON-SMALL CELL LUNG CANCER” (priority 2011, published 2013).

Sequence of CYP3A4 (P08684 whole entry): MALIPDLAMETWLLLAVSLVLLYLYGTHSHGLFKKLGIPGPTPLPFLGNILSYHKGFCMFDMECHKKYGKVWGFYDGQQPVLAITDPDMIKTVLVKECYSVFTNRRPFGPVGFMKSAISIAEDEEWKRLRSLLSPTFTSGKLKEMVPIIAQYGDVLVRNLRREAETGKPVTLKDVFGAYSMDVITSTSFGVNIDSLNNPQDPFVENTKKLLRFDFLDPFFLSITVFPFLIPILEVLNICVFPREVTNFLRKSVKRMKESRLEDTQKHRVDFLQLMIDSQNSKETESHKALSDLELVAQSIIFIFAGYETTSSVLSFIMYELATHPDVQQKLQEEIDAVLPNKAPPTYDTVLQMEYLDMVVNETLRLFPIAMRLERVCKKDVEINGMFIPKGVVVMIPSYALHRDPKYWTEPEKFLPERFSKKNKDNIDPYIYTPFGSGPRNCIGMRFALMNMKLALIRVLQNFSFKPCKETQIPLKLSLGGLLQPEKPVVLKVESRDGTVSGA

Regarding “custirsen: anti-clusterin antisense oligonucleotide CAGCAGCAGAGTCTTCATCAT, phosphorothioate backbone, 2′-O-methoxyethyl at nucleotides 1-4 and 18-21, 5-methylcytosines at 1, 4, 19 (antisense e[5mC]*eA*eG*e[5mC]*dA*dG*dC*dA*dG*dA*dG*dT*dC*dT*dT*dC*dA*eT*e[5mC]*eA*eT; listed as Homo sapiens)”, the “subjects with grade 1-2 constitutional symptoms (e.g., fever and chills)” value in data set [1] was 50-60%. The median survival time is 12.2 months with stage IIIB or IV NSCLC (baseline clusterin >71 μg/mL, N=20, early discontinuers removed); 10.2 months in the data set on stage IIIB or IV NSCLC (baseline clusterin >71 μg/mL, N=26 of all N=69 subjects); 28.7 months in the data set on stage IIIB or IV NSCLC (baseline clusterin ≦71 μg/mL, N=35, early discontinuers removed); 18.8 months in the data set on stage IIIB or IV NSCLC (baseline clusterin ≦71 μg/mL, N=45 of all N=69 subjects). The “sensitization of cancer cells to chemotherapy” value in data set [2] was “sensitizes”. The expression of clusterin result in the data set with clusterin is reported as “potently reduces”.
`CC(=O)O[C@@]12CO[C@@H]1C[C@H](O)[C@@]1(C)C(=O)[C@H](O)C3=C(C)[C@@H](OC(=O)[C@H](O)[C@@H](NC(=O)OC(C)(C)C)c4ccccc4)C[C@@](O)([C@@H](OC(=O)c4ccccc4)[C@H]21)C3(C)C` [Docetaxel]: the “patients with grade 4 neutropenia (<500 cells/mm^3)” value in data set [3] (60 mg/m^2) is given as 75%; in data set [3] (100 mg/m^2), 85%. The “patients with neutropenia (<2,000 neutrophils/mm^3)” value in data set [3] (60-100 mg/m^2) was “virtually all”. For the same compound, the “median PFS” value with NSCLC is “about 3 months”. For the same compound, the CYP3A4 substrate result on CYP3A4 is listed as “substrate”.
